System: rosacea
Experiment: topical treatment of rosacea in human subjects (case reports)
Type: in vivo
Details: long-term use by subjects with facial rosacea
Text: A second subject was a person who suffered from disfiguring rosacea on their face for 14 years. […] After failure of the cortisone treatment to provide adequate relief, the subject used an ascorbic acid, zinc sulfate and tyrosine formulation once a day. The ascorbic acid composition provided slight relief, but the subject's rosacea never cleared up adequately. The subject then used the same ascorbic acid formulation to which 20% (w/v) glucosamine had been added.
FIG. 4 provides an exemplary depiction of the cosmetic and therapeutic benefits of the present invention. A subject used an embodiment of the present invention containing glucosamine for one week. Before using the embodiment (panel A), the subject suffered from disfiguring rosacea blemishes on their face. […] In one week, the size of blemishes has decreased and the intensity of the rosacea has abated, although some scarring (resulting from years of severe inflammatory lesions that had not responded to previous treatments) remains.

Compound: C[C@]12CCC(=O)C=C1CC[C@@H]1[C@@H]2[C@@H](O)C[C@@]2(C)[C@H]1CC[C@]2(O)C(=O)CO [hydrocortisone]
- control of rosacea inflammation: partially control

— patent US20080125395A1, “COMPOSITIONS AND METHODS FOR THE TREATMENT OF SKIN” (priority 1999, published 2008)
